Here are results for 4 molecules from ChEMBL document CHEMBL1201862, “PubChem BioAssay data set” (2004).

For experiment [1], the target named is T1, Corticotropin-releasing factor receptor 2/Corticotropin-releasing factor-binding protein (Homo sapiens, UniProt P24387+Q13324).
T1 sequence (Q13324 whole entry): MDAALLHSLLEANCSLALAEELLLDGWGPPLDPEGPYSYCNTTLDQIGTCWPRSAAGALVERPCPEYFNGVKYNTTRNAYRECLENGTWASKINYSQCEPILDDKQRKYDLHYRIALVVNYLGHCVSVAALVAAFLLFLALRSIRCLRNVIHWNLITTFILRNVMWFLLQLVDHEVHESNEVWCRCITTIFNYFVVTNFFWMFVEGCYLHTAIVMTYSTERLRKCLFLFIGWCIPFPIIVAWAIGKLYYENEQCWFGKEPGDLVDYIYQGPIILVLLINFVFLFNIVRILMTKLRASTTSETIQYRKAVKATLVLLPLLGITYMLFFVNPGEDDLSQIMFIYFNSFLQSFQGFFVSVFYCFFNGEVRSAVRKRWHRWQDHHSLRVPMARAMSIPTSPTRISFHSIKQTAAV
T1 sequence (P24387 whole entry): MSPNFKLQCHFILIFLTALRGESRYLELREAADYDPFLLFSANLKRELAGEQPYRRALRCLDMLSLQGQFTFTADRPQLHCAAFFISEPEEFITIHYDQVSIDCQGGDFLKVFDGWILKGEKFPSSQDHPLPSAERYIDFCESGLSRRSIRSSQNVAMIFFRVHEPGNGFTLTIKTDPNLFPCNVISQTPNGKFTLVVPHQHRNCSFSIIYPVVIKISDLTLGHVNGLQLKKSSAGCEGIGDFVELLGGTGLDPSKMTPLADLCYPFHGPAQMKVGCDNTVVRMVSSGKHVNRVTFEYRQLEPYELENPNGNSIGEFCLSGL
Nature of the experiment: activators of CRF receptor 2 with binding protein – uHTS hits, confirmation (AID 602473). The class given is functional. The note with it: read-out: EC50_Mean.

Experiment [2] in a line: Luminescence Cell-Based Dose Confirmation HTS to Identify Activators of 5'UTR Stem-Loop Driven Alpha-Synuclein mRNA Translation in H4 Neuroglioblastoma Cells. [Related pubchem assays: 1829 (Project Summary), 1814 (Primary HTS)]. The class given is functional.
A short description of experiment [3]: Luminescence Cell-Based Dose Response HTS to Identify Activators of Luciferase Translation or Activity in H4 […] Cells. [Related pubchem assays: 1829 (Project Summary), 1814 (Primary HTS)]. It is filed as functional.
Experiment [4] has as its target T2, Zinc finger protein mex-5 (Caenorhabditis elegans, UniProt Q9XUB2).
T2 sequence (Q9XUB2 whole entry): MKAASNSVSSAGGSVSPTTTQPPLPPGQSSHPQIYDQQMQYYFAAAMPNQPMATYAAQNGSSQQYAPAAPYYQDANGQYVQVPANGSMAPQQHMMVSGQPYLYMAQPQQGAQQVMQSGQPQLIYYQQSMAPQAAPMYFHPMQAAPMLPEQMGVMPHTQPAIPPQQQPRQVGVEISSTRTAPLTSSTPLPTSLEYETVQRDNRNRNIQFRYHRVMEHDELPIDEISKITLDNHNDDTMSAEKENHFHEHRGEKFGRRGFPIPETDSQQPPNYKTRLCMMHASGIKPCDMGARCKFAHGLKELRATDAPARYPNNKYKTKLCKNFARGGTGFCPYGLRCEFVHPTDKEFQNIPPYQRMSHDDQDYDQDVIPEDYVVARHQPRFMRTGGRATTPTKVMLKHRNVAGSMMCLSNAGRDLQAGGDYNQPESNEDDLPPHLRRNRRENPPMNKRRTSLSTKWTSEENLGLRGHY
Description: MEX-5/TCR-2 RNA interaction inhibitors, dose response, biochemical, C. elegans, fluorescence polarization (AID 1960).

The subject of a further experiment is H4. Description: Luminescence Cell-Based Dose Response HTS to Identify Activators of 5'UTR Stem-Loop Driven Prion Protein mRNA Translation in H4 Neuroglioblastoma Cells. [Related pubchem assays: 1829 (Project Summary), 1814 (Primary HTS)]. The class given is functional. The note with it: Homo sapiens.
For experiment [5], the target named is Heat shock protein HSP 90-alpha (Homo sapiens, UniProt P07900). Description: Luminescence-based dose response biochemical high throughput screening assay for inhibitors of the Heat Shock Protein 90 (HSP90). [Related pubchem assays: 1831 (Summary AID.), 1846 (Confirmation screen.), 1789 (Primary screen.)].
Experiment [6] deals with T3, RNA-binding protein pos-1 (Caenorhabditis elegans, UniProt G5EF15).
T3 sequence (G5EF15 whole entry): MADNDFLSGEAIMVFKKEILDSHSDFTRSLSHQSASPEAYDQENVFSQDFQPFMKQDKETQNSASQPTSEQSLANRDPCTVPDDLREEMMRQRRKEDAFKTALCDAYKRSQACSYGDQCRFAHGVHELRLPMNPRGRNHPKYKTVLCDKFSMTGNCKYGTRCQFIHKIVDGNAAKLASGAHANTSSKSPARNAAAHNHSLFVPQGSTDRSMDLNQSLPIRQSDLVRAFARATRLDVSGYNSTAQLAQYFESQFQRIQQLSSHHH
Nature of the experiment: inhibitors of POS-1/mex-3 RNA binding, dose response, biochemical, fluorescence polarization (AID 1964).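 Also: purified POS-1 fused to maltose binding protein made in E. coli; potency of compounds blocking POS-1 binding to fluorescent RNA.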

The target in experiment [7] is Luciferin 4-monooxygenase (Photinus pyralis, UniProt P08659). Nature of the experiment: In vitro luciferase assay using purified luciferase. [Related pubchem assays: 1299, 1270, 1295, 1375, 1287, 1281, 1293, 1291, 1289, 1280, 465, 1364, 1282, 1372, 1365, 1370, 1367, 1366, 1266, 1373, 1292, 1290, 1302, 1371, 1283, 1271, 1294, 1374, 1368, 1369 ].
Experiment [8] has as its system HEK293. Description: Cytotoxicity assay in HEK293 cells. [Related pubchem assays (depositor defined):AID1266, AID1269, AID1270, AID1271, AID1280, AID1281, AID1282, AID1283, AID1287, AID1289, AID1290, AID1291, AID1292, AID1293, AID1294, AID1295, AID1299, AID1302, AID1364, AID1365, AID1366, AID1367, AID1369, AID1370, AID1371, AID1372, AID1373, AID1374, AID1375, AID1384 …. The class given is functional, cell-based. The note with it: Homo sapiens.

The test system of experiment [9] is HEK293. Description: TNF Induced NF-kB Luciferase in 293-NF-kB-Luc Stable Cells. [Related pubchem assays: 1266, 1299, 1269, 1373, 1292, 1290, 1302, 1371, 1283, 1270, 1295, 1271, 1375, 1294, 1374, 1281, 1293, 1291, 1289, 1280, 465, 1368, 1364, 1282, 1372, 1365, 1369, 1370, 1367, 1366 ]. The class given is functional, cell-based. The note with it: Homo sapiens.

The test system of experiment [10] is HEK293. Description: PMA/Ionomycin induced NF-kB luciferase assay in 293- NF-kB-Luc stable cells. [Related pubchem assays: 1299, 1270, 1295, 1375, 1287, 1281, 1293, 1291, 1289, 1280, 465, 1364, 1282, 1372, 1365, 1370, 1367, 1366, 1269, 1373, 1292, 1290, 1302, 1371, 1283, 1271, 1294, 1374, 1368, 1369 ]. It is filed as functional, cell-based. As to conditions: Homo sapiens.

The nature of experiment [11]: Vero cell cytotoxicity, dose response, cytotoxicity control for Vif-APOBEC3G degradation inhibitor project, Vero cells (AID 1117358). It is filed as functional. As to conditions: Human immunodeficiency virus 1, Vero.
The target of the next experiment is T4, Protein skinhead-1 (Caenorhabditis elegans, UniProt P34707).
T4 sequence (P34707 whole entry): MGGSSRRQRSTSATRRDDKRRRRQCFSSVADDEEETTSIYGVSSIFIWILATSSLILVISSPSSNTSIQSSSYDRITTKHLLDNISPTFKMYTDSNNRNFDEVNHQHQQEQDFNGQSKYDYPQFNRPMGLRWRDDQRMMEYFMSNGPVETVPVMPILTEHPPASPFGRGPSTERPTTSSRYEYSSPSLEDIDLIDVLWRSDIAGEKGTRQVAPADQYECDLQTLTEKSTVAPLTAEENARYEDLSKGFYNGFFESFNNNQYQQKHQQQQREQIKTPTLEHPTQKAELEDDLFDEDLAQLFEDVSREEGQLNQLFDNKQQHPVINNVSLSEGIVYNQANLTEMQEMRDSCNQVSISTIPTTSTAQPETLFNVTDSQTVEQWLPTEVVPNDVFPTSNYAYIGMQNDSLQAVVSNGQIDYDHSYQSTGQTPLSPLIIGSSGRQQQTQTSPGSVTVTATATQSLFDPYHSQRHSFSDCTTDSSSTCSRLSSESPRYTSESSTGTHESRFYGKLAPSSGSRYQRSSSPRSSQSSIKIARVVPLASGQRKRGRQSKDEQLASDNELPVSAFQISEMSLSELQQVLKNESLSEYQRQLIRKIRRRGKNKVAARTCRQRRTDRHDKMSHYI
It is filed as functional.

Experiment [12] can be described thus: inducers of E-selectin gene expression, confirmation, orthogonal assay for E-selectin inducer project, cell-based, HUVEC, RT-qPCR, dry powder (AID 1117270). It is filed as functional.

Active and inactive are the calls of the source.

Luciferin 4-monooxygenase, sequence (P08659 whole entry): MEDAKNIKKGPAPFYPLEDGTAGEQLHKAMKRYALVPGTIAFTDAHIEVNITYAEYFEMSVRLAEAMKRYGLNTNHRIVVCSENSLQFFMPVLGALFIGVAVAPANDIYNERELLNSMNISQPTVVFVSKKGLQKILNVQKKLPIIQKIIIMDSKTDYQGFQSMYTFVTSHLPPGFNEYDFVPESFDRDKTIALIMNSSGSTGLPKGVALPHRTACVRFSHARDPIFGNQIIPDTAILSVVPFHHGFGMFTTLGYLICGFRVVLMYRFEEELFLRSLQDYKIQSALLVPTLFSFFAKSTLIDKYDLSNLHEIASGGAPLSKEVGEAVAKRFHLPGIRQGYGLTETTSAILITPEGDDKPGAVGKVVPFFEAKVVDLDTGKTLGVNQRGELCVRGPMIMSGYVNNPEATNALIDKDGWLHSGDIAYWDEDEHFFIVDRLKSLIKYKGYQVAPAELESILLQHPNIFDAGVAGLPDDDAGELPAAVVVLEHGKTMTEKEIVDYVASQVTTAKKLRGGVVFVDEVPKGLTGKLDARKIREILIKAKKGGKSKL

As for `Cc1ccc2oc(=O)c(/C=C(\O)c3cccs3)nc2c1`, the EC50 in [1] is 4.87 µM (active); in experiment [2] it was 16.6 µM (active); in experiment [3], 13.1 µM (active); in experiment [4] it was 6.82 µM (inconclusive); in the experiment on H4, 16.5 µM (active); in experiment [6], 21.3 µM (inconclusive). Moreover, the IC50 in experiment [5] was 5.05 µM (active).

On to `Cc1ccc2[nH]c(=O)c(C(=O)/C=C/c3ccccc3Cl)c(-c3ccccc3)c2c1`, for which the EC50 in experiment [7] was > 8 µM (not active); in the experiment on HEK293 [8], 5.72 µM (inactive); in the experiment on HEK293 [9], 2.6 µM (active); with HEK293 [10], 1.17 µM (active).

Take `COc1cc2c(cc1NC(=O)CC1SC(N3CCCC3)=NC1=O)oc1ccccc12` (centres undefined): in experiment [11], the CC50 is > 40 µM (active).

Consider `Cc1cccc(NC(=O)NCc2ccc3c(c2)cc(C)n3C)c1`, for which the IC50 on Protein skinhead-1 was > 100 µM (inactive). In addition, the AC50 in experiment [12] is 0.306 µM (active).
